Results published in US6770597B2, “Benzohydrazide derivatives as herbicides and desiccant compositions containing them” (Ishihara Sangyo Kaisha, Ltd., priority 2002, dated 2004).

Assays:
Type in all cases: in vivo
[1] = tested on: green foxtail (Setaria viridis, SETVI); assay: Greenhouse herbicide screen, post-emerge application, phytotoxicity rating; conditions: POST emergent, 14 days after application, scale 0-100
From the text: (§1) A standard greenhouse herbicide activity screening system was used to evaluate the herbicidal efficacy and crop safety of these test compounds. Seven broadleaf weed species including redroot pigweed (Amaranthus retrofiexus, AMARE), velvetleaf (Abutilon theophrasti, ABUTH), sicklepod (Cassia obtusifolia, CASOB), ivyleaf morningglory (Ipomoea hederacea, IPOHE), lambsquarters (Chenopodium album, CHEAL), common ragweed (Ambrosia artemisiifolia L., AMBEL), and cocklebur (Xanthium strumarium, XANST) were used as test species. Four grass weed species including green foxtail (Setaria viridis, SETVI), barnyardgrass (Echinochloa crus-galli, ECHCG), johnsongrass (Sorghum halepense, SORHA), and large crabgrass (Digitaria sanguinalis, DIGSA) were also used. In addition, four crop species, field corn (Zea mays L., var. Dekalb 535, CORN), soybean (Glycine max L., var. Pella 86, SOY), upland rice (Oryza sp., var.Cocodrie, RICE) and wheat (Triticum aestivum L.) were included.
(§2) All plants were grown in 10 cm square plastic pots which were filled with a sandy loam soil mix. For pre-emerge tests, seeds were planted one day prior to application of the test compounds. For post-emerge tests, seeds were planted 8-21 days prior to the test to allow emergence and good foliage development prior to application of the test substances. At the time of the post-emerge application, plants of all species were usually at the 2-3 leaf stage of development.
(§3) All test compounds were dissolved in acetone and applied to the test units in a volume of 187 l/ha. Test materials were applied at rates ranging from 15 g ai/ha to 1000 g ai/ha using a track sprayer equipped with a TJ8001E even flow flat fan spray nozzle. Plants were arranged on a shelf so that the top of the canopy (post-emerge) or top of the soil surface (pre-emerge) was 40-45 cm below the nozzle. Pressurized air was used to force the test solution through the nozzle as it was mechanically advanced (via electrically driven chain drive) over the top of all test plants/pots. This application simulates a typical commercial field herbicide application.
(§4) Pre-emergence tests were top watered immediately after treatment to incorporate the test materials, then routinely top-watered for normal growth. Post-emerge test units were always bottom-watered.
(§5) At 14 days after application of the test materials, phytotoxicity ratings were recorded. A rating scale of 0-100 was used as previously described in Research Methods in Weed Science, 2nd edition, B. Truelove, Ed., Southern Weed Science Society, Auburn University, Auburn, Ala., 1977. Briefly, “0” corresponds to no damage and “100” corresponds to complete death of all plants in the test unit. This scale was used both to determine efficacy against weed species and damage to crop species. Herbicide activity data for various compounds of this invention, which are shown by compound No. in Tables 1-12, are shown in Tables 13 and 14.

[2] = tested on: velvetleaf (Abutilon theophrasti, ABUTH); assay: as above; conditions: POST emergent, 14 days after application, scale 0-100
From the text: as §1, §2, §3, §4, §5

[3] = tested on: lambsquarters (Chenopodium album, CHEAL); assay: as above; conditions: POST emergent, 14 days after application, scale 0-100
From the text: as §1, §2, §3, §4, §5

[4] = tested on: ivyleaf morningglory (Ipomoea hederacea, IPOHE); assay: as above; conditions: POST emergent, 14 days after application, scale 0-100
From the text: as §1, §2, §3, §4, §5

[5] = tested on: cocklebur (Xanthium strumarium, XANST); assay: as above; conditions: POST emergent, 14 days after application, scale 0-100
From the text: as §1, §2, §3, §4, §5

[6] = tested on: barnyardgrass (Echinochloa crus-galli, ECHCG); assay: as above; conditions: POST emergent, 14 days after application, scale 0-100
From the text: as §1, §2, §3, §4, §5

[7] = tested on: redroot pigweed (Amaranthus retrofiexus, AMARE); assay: as above; conditions: POST emergent, 14 days after application
From the text: as §1, §2, §3, §4, §5

[8] = tested on: large crabgrass (Digitaria sanguinalis, DIGSA); assay: as above; conditions: POST emergent, 14 days after application, scale 0-100
From the text: as §1, §2, §3, §4, §5

[9] = tested on: sicklepod (Cassia obtusifolia, CASOB); assay: as above; conditions: POST emergent, 14 days after application, scale 0-100
From the text: as §1, §2, §3, §4, §5

[10] = tested on: johnsongrass (Sorghum halepense, SORHA); assay: as above; conditions: POST emergent, 14 days after application, scale 0-100
From the text: as §1, §2, §3, §4, §5

[11] = tested on: common ragweed (Ambrosia artemisiifolia L., AMBEL); assay: as above; conditions: POST emergent, 14 days after application, scale 0-100
From the text: as §1, §2, §3, §4, §5

[12] = tested on: green foxtail (Setaria viridis, SETVI); assay: Greenhouse herbicide screen, pre-emerge application, phytotoxicity rating; conditions: PRE emergent, 14 days after application, rating scale 0-100
From the text: as §1, §2, §3, §4, §5

[13] = tested on: velvetleaf (Abutilon theophrasti, ABUTH); assay: as above; conditions: PRE emergent, 14 days after application, rating scale 0-100
From the text: as §1, §2, §3, §4, §5

[14] = tested on: lambsquarters (Chenopodium album, CHEAL); assay: as above; conditions: PRE emergent, 14 days after application, rating scale 0-100
From the text: as §1, §2, §3, §4, §5

[15] = tested on: ivyleaf morningglory (Ipomoea hederacea, IPOHE); assay: as above; conditions: PRE emergent, 14 days after application, rating scale 0-100
From the text: as §1, §2, §3, §4, §5

[16] = tested on: cocklebur (Xanthium strumarium, XANST); assay: as above; conditions: PRE emergent, 14 days after application, rating scale 0-100
From the text: as §1, §2, §3, §4, §5

[17] = tested on: barnyardgrass (Echinochloa crus-galli, ECHCG); assay: as above; conditions: PRE emergent, 14 days after application, rating scale 0-100
From the text: as §1, §2, §3, §4, §5

[18] = tested on: redroot pigweed (Amaranthus retrofiexus, AMARE); assay: as above; conditions: PRE emergent, 14 days after application, rating scale 0-100
From the text: as §1, §2, §3, §4, §5

[19] = tested on: large crabgrass (Digitaria sanguinalis, DIGSA); assay: as above; conditions: PRE emergent, 14 days after application, rating scale 0-100
From the text: as §1, §2, §3, §4, §5

[20] = tested on: sicklepod (Cassia obtusifolia, CASOB); assay: as above; conditions: PRE emergent, 14 days after application, rating scale 0-100
From the text: as §1, §2, §3, §4, §5

[21] = tested on: johnsongrass (Sorghum halepense, SORHA); assay: as above; conditions: PRE emergent, 14 days after application, rating scale 0-100
From the text: as §1, §2, §3, §4, §5

[22] = tested on: common ragweed (Ambrosia artemisiifolia L., AMBEL); assay: as above; conditions: PRE emergent, 14 days after application, rating scale 0-100
From the text: as §1, §2, §3, §4, §5

In the case of `CN(N=C(C(C)(C)C)C(C)(C)C)C(=O)c1cc(-n2c(=O)cc(C(F)(F)F)n(C)c2=O)c(F)cc1Cl` [Compound 6-8, 2-chloro-5-(3,6-dihydro-3-methyl-2,6-dioxo-4-(trifluoromethyl)-1(2H)-pyrimidinyl)-4-fluoro-benzoic acid, 2-[1-(1,1-dimethylethyl)-2,2-dimethylpropylidene]-1-methylhydrazide], the “phytotoxicity rating SETVI” value ([1]; 63 g ai/ha) is reported as 50, the “phytotoxicity rating SETVI” value ([1]; 250 g ai/ha) is reported as 75 and the “phytotoxicity rating ABUTH” value ([2]; 63 g ai/ha) is reported as 50. For the same compound, the “phytotoxicity rating ABUTH” value ([2]; 250 g ai/ha) was 100, the “phytotoxicity rating CHEAL” value ([3]; 63 g ai/ha) was 80 and the “phytotoxicity rating CHEAL” value ([3]; 250 g ai/ha) was 100. For the same compound, the “phytotoxicity rating IPOHE” value ([4]; 63 g ai/ha) was 100, the “phytotoxicity rating IPOHE” value ([4]; 250 g ai/ha) was 100 and the “phytotoxicity rating XANST” value ([5]; 63 g ai/ha) was 35. For the same compound, the “phytotoxicity rating XANST” value ([5]; 250 g ai/ha) was 100, the “phytotoxicity rating ECHCO” value ([6]; 63 g ai/ha) was 60 and the “phytotoxicity rating ECHCO” value ([6]; 250 g ai/ha) was 85. For the same compound, the “phytotoxicity rating AMARE” value ([7]; 63 g ai/ha, scale 0-100 (0 no damage, 100 complete death)) was 99, the “phytotoxicity rating AMARE” value ([7]; 250 g ai/ha, scale 0-100) was 100 and the “phytotoxicity rating DIGSA” value ([8]; 63 g ai/ha) was 50. The “phytotoxicity rating DIGSA” value ([8]; 250 g ai/ha) was 60, the “phytotoxicity rating CASOB” value ([9]; 63 g ai/ha) was 50 and the “phytotoxicity rating CASOB” value ([9]; 250 g ai/ha) was 60. The “phytotoxicity rating SORHA” value ([10]; 63 g ai/ha) was 65, the “phytotoxicity rating SORHA” value ([10]; 250 g ai/ha) was 95 and the “phytotoxicity rating AMBEL” value ([11]; 63 g ai/ha) was 70. The “phytotoxicity rating AMBEL” value ([11]; 250 g ai/ha) was 70, the “phytotoxicity rating SETVI” value ([12]; 63 g ai/ha) was 55 and the “phytotoxicity rating SETVI” value ([12]; 250 g ai/ha) was 99. The “phytotoxicity rating ABUTH” value ([13]; 63 g ai/ha) was 99, the “phytotoxicity rating ABUTH” value ([13]; 250 g ai/ha) was 99 and the “phytotoxicity rating CHEAL” value ([14]; 63 g ai/ha) was 100. The “phytotoxicity rating CHEAL” value ([14]; 250 g ai/ha) was 100, the “phytotoxicity rating IPOHE” value ([15]; 63 g ai/ha) was 60 and the “phytotoxicity rating IPOHE” value ([15]; 250 g ai/ha) was 100. The “phytotoxicity rating XANST” value ([16]; 63 g ai/ha) was 0, the “phytotoxicity rating XANST” value ([16]; 250 g ai/ha) was 70 and the “phytotoxicity rating ECHCG” value ([17]; 63 g ai/ha) was 30. For the same compound, the “phytotoxicity rating ECHCG” value ([17]; 250 g ai/ha) was 85, the “phytotoxicity rating AMARE” value ([18]; 63 g ai/ha) was 100 and the “phytotoxicity rating AMARE” value ([18]; 250 g ai/ha) was 100. For the same compound, the “phytotoxicity rating DIGSA” value ([19]; 63 g ai/ha) was 60, the “phytotoxicity rating DIGSA” value ([19]; 250 g ai/ha) was 95 and the “phytotoxicity rating CASOB” value ([20]; 63 g ai/ha) was 20. The “phytotoxicity rating CASOB” value ([20]; 250 g ai/ha) was 70, the “phytotoxicity rating SORHA” value ([21]; 63 g ai/ha) was 55 and the “phytotoxicity rating SORHA” value ([21]; 250 g ai/ha) was 100. For the same compound, the “phytotoxicity rating AMBEL” value ([22]; 63 g ai/ha) was 0 and the “phytotoxicity rating AMBEL” value ([22]; 250 g ai/ha) was 99.
